Legend:
[1] = In-vivo study of bioavailability in dogs of capsules filled with salts
Procedure: Four male dogs were used per tested formulation. The animals were randomized over the test groups by a computer-generated random algorithm according to body weight, with all animals within ±20% of the sex mean. A health inspection was performed prior to commencement of treatment to ensure that the animals were in a good state of health. The dogs were subjected to an acclimatization period of at least 5 days before the start of treatment under laboratory conditions. A controlled environment was maintained in the room. The animals were dosed once orally with the formulations of example 1, and blood was collected from all animals under light ether anaesthesia at regular intervals for a period of 12, 24 or 48 hours after dosing.
The mean pharmacokinetic parameters relating to the mean plasma concentration with time of each test formulation are shown in Table 3. The standard deviation, where calculated, is shown between brackets.

[2] = Stability of salts of compound (A) (decomposition to compound (A) and free acid); format: physicochemical; settings: partial or complete decomposition to compound (A) and the free acid
From the text: Contrary to a number of other salts of compound (A) that are unstable, the compound of formula (I) is a stable salt.

[3] = male dogs, dosed once orally, capsules, dose normalized to 1 mg/kg, mean

Br.Cc1cc(C#N)cc(C)c1Oc1nc(Nc2ccc(C#N)cc2)nc(N)c1Br [HBr salt, 4-[[4-amino-5-bromo-6-(4-cyano-2,6-dimethylphenyloxy)-2-pyrimidinyl]amino]benzonitrile hydrobromide]
Tmax ([1]; dog, plasma, po, 118.6 mg salt per capsule, male dogs, dosed once orally, capsules of example 1, mean): 4.5 h | Cmax ([1]; dog, plasma, po, 118.6 mg salt per capsule, male dogs, dosed once orally, capsules, without dose normalization, mean): 366 ng/mL | AUC(0-t) ([1]; dog, plasma, po, 118.6 mg salt per capsule, male dogs, dosed once orally, capsules, without dose normalization, mean, read-out: AUC0-last (without dose normalization)): 5860 ng·h/mL | bioavailability in dogs compared with other salts (Cmax, AUC0-last) ([1]; dogs, oral capsules): improved bioavailability | tlast ([1]; male dogs, dosed once orally, capsules of example 1, mean): 48 h | AUC0-last (dose normalized to 1 mg/kg) [1, 3]: 516.1 ng·h/mL | Cmax (dose normalized to 1 mg/kg) [1, 3]: 31.73 ng/mL | stability of the salt [2]: stable

— patent US11253479B2, “Hydrobromide salt of an anti-HIV compound” (Janssen Sciences Ireland UC, priority 2006, dated 2022)
